Reference: US7196110B2, “N-substituted tricyclic 3-aminopyrazoles as inhibitors for the treatment of cell proliferative disorders” (Janssen Phamaceutica N.V., priority 2002, dated 2007)

What was measured:
[1] = target: c-Abl kinase (Abelson murine leukemia virus, UniProt P00521); experiment: Inhibition of c-Abl kinase activity (cell-free, Abl peptide substrate, 33P Flashplate); format: biochemical; settings: IC50 for the c-Abl kinase activity
Protocol: The inhibitory activity of compounds within the scope of the invention on c-Abl kinase activity was tested according to the following procedure.
• 1. 10× Kinase Buffer [500 mM Tris-HCl pH=8, 100 mM MgCl2, 1 mM Na3VO4] • 2. 10 mM DTT [final concentration 1 mM] • 3. 10 mM ATP [final concentration 5 μM] (Gibco, Cat No:18330-019, Carlsbad, Calif.) • 4. ^33P-γ-ATP [NEG-602H; 2000–3000 Ci/mmol], 2 μCuries per well at 10 μCi/μl (0.2 μl/well) • 5. Abl enzyme (New England Biolabs, Cat No. P6050L, Beverly, Mass.) at 100 Units/μl use 10 Units/well (0.1 μl/well) • 6. Enzyme Dilution Buffer [50 mM Tris-HCl pH=8.0, 0.1% BSA] • 7. Wash/Stop Buffer [PBS+100 mM EDTA] • 8. NEN Streptavidin Flashplates (New England Nuclear, Cat No. SMP-103, Boston, Mass.). • 9. Abl Peptide Substrate (Biotin-[…]-amide) at 1 mM in 50 mM Tris-HCL pH=8.0. (Use at 1.0 μM). Procedure
Reagents were first mixed according to the following regimen:
The above reaction mixture was dispensed into each well of a Flashplate at 70 μl/well. To test the effect of a compound on Abl kinase activity, the test compound either in a fixed concentration or in serially diluted concentrations in 100% DMSO was added to appropriate wells at 1 μl/well.
Enzyme Abl was diluted in enzyme dilution buffer as following:
The kinase reaction was started by adding 30 μl of diluted Abl enzyme solution to each well on the Flashplate containing hot ATP (2 μCi/well) and Abl peptide substrate (at 1 μM final conc.), except wells of column 12 rows E and F, which were used to calculate the plate background. The Flashplate was swirled to mix and was incubated at 30° C. for 60 minutes. Then, the reaction mixture was discarded and the Flashplate was washed 3 times each with 200 μL Wash/Stop Buffer. Subsequently, each well on the Flashplate was filled with 200 μl of Wash/Stop buffer. The amount of ^33P retained in each well was measured using a Packard TopCount after the plate was sealed with a transparent plate sealer.
In order to test the potency of inhibition of present compounds, an IC50 for an individual compound was measured using the above procedure. As used herein, the IC50 for c-Abl kinase activity refers to the concentration of an inhibitor at which the activity of c-Abl kinase is reduced by one-half as compared with reactions containing no inhibitor.

[2] = target: T1, PDGF-receptor beta enzyme comprising the tyrosine kinase domain (Homo sapiens, UniProt P09619); experiment: Inhibition of PDGF-receptor kinase activity (cell-free, PLC1 peptide, 33P Flashplate); format: biochemical; settings: PDGF-R kinase activity; for inhibition at 10 µM: compound at 10 uM, read-out: Percent Inhibition @ 10 uM; for IC50: read-out: IC50
T1 construct: from amino acid 545 to 1106 of GenBank Access NO: AAA36427
Summary of the method: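 The IC50 is the inhibitor level halving kinase activity relative to inhibitor-free wells, measured as 33P captured on a streptavidin-bound biotin-PLC1 peptide. The reaction ran 60 min at 30 °C in pH 8 Tris buffer with 1 mM DTT, 5 μM ATP and the 545–1106 kinase-domain enzyme.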

c-Abl kinase, sequence (P00521 115-385): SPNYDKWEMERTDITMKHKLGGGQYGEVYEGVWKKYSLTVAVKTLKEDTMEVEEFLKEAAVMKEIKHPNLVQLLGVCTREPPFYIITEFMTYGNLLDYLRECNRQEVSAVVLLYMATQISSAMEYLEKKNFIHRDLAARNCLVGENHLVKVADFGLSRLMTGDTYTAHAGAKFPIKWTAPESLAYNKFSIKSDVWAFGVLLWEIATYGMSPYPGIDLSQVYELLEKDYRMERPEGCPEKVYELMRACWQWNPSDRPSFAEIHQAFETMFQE
T1 sequence (P09619 545-1106): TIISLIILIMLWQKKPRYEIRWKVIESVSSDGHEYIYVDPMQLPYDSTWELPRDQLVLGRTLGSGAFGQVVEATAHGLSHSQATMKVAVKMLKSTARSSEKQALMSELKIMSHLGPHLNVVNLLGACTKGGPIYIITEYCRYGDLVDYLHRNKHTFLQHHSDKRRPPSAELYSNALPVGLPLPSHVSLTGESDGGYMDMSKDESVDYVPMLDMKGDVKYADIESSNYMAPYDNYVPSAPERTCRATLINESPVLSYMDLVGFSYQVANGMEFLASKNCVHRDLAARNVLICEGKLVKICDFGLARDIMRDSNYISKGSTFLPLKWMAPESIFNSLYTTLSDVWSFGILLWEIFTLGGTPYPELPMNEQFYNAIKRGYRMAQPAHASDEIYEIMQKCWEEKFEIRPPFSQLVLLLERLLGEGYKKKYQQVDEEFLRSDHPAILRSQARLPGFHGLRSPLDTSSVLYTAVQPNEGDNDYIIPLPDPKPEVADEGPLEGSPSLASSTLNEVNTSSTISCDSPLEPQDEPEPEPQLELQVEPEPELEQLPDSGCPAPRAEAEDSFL

**Q.** How did the IC50 [1] turn out when COc1cc2c(cc1OC)C(C)c1c-2n[nH]c1Nc1cccc(Br)c1 (stereo not drawn) [Compound 256, (3-Bromo-phenyl)-(6,7-dimethoxy-4-methyl-2,4-dihydro-indeno[1,2-c]pyrazol-3-yl)-amine] was run?
**A.** 55 nM

**Q.** And the inhibition at 10 µM [2]?
**A.** 89%

**Q.** And the IC50 [2]?
**A.** 8 nM

**Q.** Which results are given for COc1cccc(Nc2[nH]nc3c2Cc2cc(OCC(O)CO)c(OC)cc2-3)c1 (stereo not drawn) [Compound 260, 3-[7-Methoxy-3-(3-methoxy-phenylamino)-2,4-dihydro-indeno[1,2-c]pyrazol-6-yloxy]-propane-1,2-diol]?
**A.** IC50 [1]: 13 nM; inhibition at 10 µM [2]: 91%; IC50 [2]: 1.5 nM

**Q.** Which results are given for COc1cc2c(cc1OCC(O)CO)Cc1c-2n[nH]c1Nc1ccc(F)c(Cl)c1 (stereo not drawn) [Compound 261, 3-[3-(3-Chloro-4-fluoro-phenylamino)-7-methoxy-2,4-dihydro-indeno[1,2-c]pyrazol-6-yloxy]-propane-1,2-diol]?
**A.** IC50 [1]: 64 nM; inhibition at 10 µM [2]: 71%; IC50 [2]: 10 nM

**Q.** COc1cc2c(cc1OCC(O)CO)Cc1c-2n[nH]c1Nc1cccc(F)c1 (stereo not drawn) [Compound 262, 3-[3-(3-Fluoro-phenylamino)-7-methoxy-2,4-dihydro-indeno[1,2-c]pyrazol-6-yloxy]-propane-1,2-diol] was tested. Which IC50 [1] did it give?
**A.** 27 nM

**Q.** What about the inhibition at 10 µM [2] of the same molecule?
**A.** 90%

**Q.** What about the IC50 [2] of the same molecule?
**A.** 1 nM

**Q.** Which results are given for COc1cc2c(cc1OCC(O)CO)Cc1c-2n[nH]c1Nc1cccnc1 (stereo not drawn) [Compound 263, 3-[7-Methoxy-3-(pyridn-3-ylamino)-2,4-dihydro-indeno[1,2-c]pyrazol-6-yloxy]-propane-1,2-diol]?
**A.** IC50 [1]: 512 nM; inhibition at 10 µM [2]: 103%; IC50 [2]: 46 nM

**Q.** With COc1cc2c(cc1OCCCO)Cc1c-2n[nH]c1Nc1cccc(F)c1 [Compound 265, 3-[3-(3-Fluoro-phenylamino)-7-methoxy-2,4-dihydro-indeno[1,2-c]pyrazol-6-yloxy]-propan-1-ol] as the molecule, how does the IC50 [1] read?
**A.** 85 nM

**Q.** What about the inhibition at 10 µM [2] of the same molecule?
**A.** 63%

**Q.** What about the IC50 [2] of the same molecule?
**A.** 5.53 nM

**Q.** For COc1cccc(Nc2[nH]nc3c2Cc2cc(OCCCO)c(OC)cc2-3)c1 [Compound 266, 3-[7-Mehoxy-3-(3-methoxy-phenylamino)-2,4-dihydro-indeno[1,2-c]pyrazol-6-yloxy]-propan-1-ol], which IC50 [1] is on record?
**A.** 15 nM

**Q.** And the inhibition at 10 µM [2]?
**A.** 110%

**Q.** And the IC50 [2]?
**A.** 1.53 nM

**Q.** With COc1cc2c(cc1OCCCO)Cc1c-2n[nH]c1Nc1ccc(F)c(Cl)c1 [Compound 267, 3-[3-(3-Choloro-4-fluoro-phenylamino)-7-methoxy-2,4-dihydro-indeno[1,2-c]pyrazol-6-yloxy]-propan-1-ol] as the molecule, how does the IC50 [1] read?
**A.** 326 nM

**Q.** What about the inhibition at 10 µM [2] of the same molecule?
**A.** 93.5%

**Q.** And the IC50 [2]?
**A.** 10.6 nM

**Q.** Which results are given for COc1cc2c(cc1OCCCO)Cc1c-2n[nH]c1Nc1cccc(Cl)c1 [Compound 268, 3-[3-(3-Chloro-phenylamino)-7-methoxy-2,4-dihydro-indeno[1,2-c]pyrazol-6-yloxy]-propan-1-ol]?
**A.** IC50 [1]: 20 nM; inhibition at 10 µM [2]: 84%; IC50 [2]: 1.13 nM

**Q.** Which results are given for COc1cc2c(cc1OCC(O)CN1CCCC1)Cc1c-2n[nH]c1Nc1cccc(F)c1 (stereo not drawn) [Compound 269, 1-[3-(3-Fluoro-phenylamino)-7-methoxy-2,4-dihydro-indeno[1,2-c]pyrazol-6-yloxy]-3-pyrrolidin-1-yl-propan-2-ol]?
**A.** IC50 [1]: 101 nM; inhibition at 10 µM [2]: 94%; IC50 [2]: 0.591 nM

**Q.** For COc1cccc(Nc2[nH]nc3c2Cc2cc(OCC(O)CN4CCCC4)c(OC)cc2-3)c1 (stereo not drawn) [Compound 270, 1-[7-Methoxy-3-(3-methoxy-phenylamino)-2,4-dihydro-indeno[1,2-c]pyrazol-6-yloxy]-3-pyrrolidin-1-yl-propan-2-ol], which IC50 [1] is on record?
**A.** 36 nM

**Q.** And the inhibition at 10 µM [2]?
**A.** 107%

**Q.** And the IC50 [2]?
**A.** 0.429 nM

**Q.** How did the IC50 [1] turn out when COc1cc2c(cc1OCC(O)CN1CCCC1)Cc1c-2n[nH]c1Nc1ccc(F)c(Cl)c1 (stereo not drawn) [Compound 280, 1-[3-(3-Chloro-4-fluoro-phenylamino)-7-methoxy-2,4-dihydro-indeno[1,2-c]pyrazol-6-yloxy]-3-pyrrolidin-1-yl-propan-2-ol] was run?
**A.** 363 nM

**Q.** And the inhibition at 10 µM [2]?
**A.** 102%

**Q.** What about the IC50 [2] of the same molecule?
**A.** 1.72 nM

**Q.** Which IC50 [1] does the source give for COc1cc2c(cc1OCC(O)CN1CCCC1)Cc1c-2n[nH]c1Nc1cccnc1 (stereo not drawn) [Compound 281, 1-[7-Methoxy-3-(pyridin-3-ylamino)-2,4-dihydro-indeno[1,2-c]pyrazol-6-yloxy]-3-pyrrolidin-1-yl-propan-2-ol] here?
**A.** 1580 nM

**Q.** What about the inhibition at 10 µM [2] of the same molecule?
**A.** 67%

**Q.** And the IC50 [2]?
**A.** 2.6 nM

**Q.** For COc1cc2c(cc1OCC(O)CN1CCCC1)Cc1c-2n[nH]c1Nc1cccc(Cl)c1 (stereo not drawn) [Compound 282, 1-[3-(3-Chloro-phenylamino)-7-methoxy-2,4-dihydro-indeno[1,2-c]pyrazol-6-yloxy]-3-pyrrolidin-1-yl-propan-2-ol], which IC50 [1] is on record?
**A.** 43 nM

**Q.** And the inhibition at 10 µM [2]?
**A.** 99%

**Q.** What about the IC50 [2] of the same molecule?
**A.** 0.089 nM

**Q.** What does the source list for COCCCOc1cc2c(cc1OCCCOC)-c1n[nH]c(Nc3cccc(F)c3)c1C2 [Compound 283, [6,7-Bis-(3-methoxy-propoxy)-2,4-dihydroindeno[1,2-c]pyrazol-3-yl]-(3-fluoro-phenyl)-amine]?
**A.** IC50 [1]: 340 nM; inhibition at 10 µM [2]: 86.5%; IC50 [2]: 4.36 nM

**Q.** How did the IC50 [1] turn out when COCCCOc1cc2c(cc1OCCCOC)-c1n[nH]c(Nc3cccc(OC)c3)c1C2 [Compound 284, [6,7-Bis-(3-methoxy-propoxy)-2,4-dihydroindeno[1,2-c]pyrazol-3-yl]-(3-methoxy-phenyl)-amine] was run?
**A.** 69 nM

**Q.** What about the inhibition at 10 µM [2] of the same molecule?
**A.** 84.6%

**Q.** What about the IC50 [2] of the same molecule?
**A.** 5.09 nM

**Q.** With COCCCOc1cc2c(cc1OCCCOC)-c1n[nH]c(Nc3cccnc3)c1C2 [Compound 286, [6,7-Bis-(3-methoxy-propoxy)-2,4-dihydro-indeno[1,2-c]pyrazol-3-yl]-pyridin-3-yl-amine] as the molecule, how does the IC50 [1] read?
**A.** 2950 nM

**Q.** And the inhibition at 10 µM [2]?
**A.** 95.5%

**Q.** And the IC50 [2]?
**A.** 16.2 nM

**Q.** COCCCOc1cc2c(cc1OCCCOC)-c1n[nH]c(Nc3ccc(F)c(Cl)c3)c1C2 [Compound 287, [6,7-Bis-(3-methoxy-propoxy)-2,4-dihydro-indeno[1,2-c]pyrazol-3-yl]-(3-Chloro-4-fluoro-phenyl)-amine] was tested. Which IC50 [1] did it give?
**A.** 3450 nM

**Q.** What about the inhibition at 10 µM [2] of the same molecule?
**A.** 92.5%

**Q.** And the IC50 [2]?
**A.** 26.2 nM

**Q.** CC(O)c1cccc(Nc2[nH]nc3c2Cc2cc(F)ccc2-3)c1 (stereo not drawn) [Compound 289, 1-[3-(6-Fluoro-2,4-dihydro-indeno[1,2-c]pyrazol-3-ylamino)-phenyl]-ethanol] was tested. Which IC50 [1] did it give?
**A.** 2400 nM

**Q.** And the inhibition at 10 µM [2]?
**A.** 93.5%

**Q.** What about the IC50 [2] of the same molecule?
**A.** 18.5 nM

**Q.** What does the source list for CCOc1cc2c(cc1OCC)-c1n[nH]c(NCc3ccccc3Cl)c1C2 [Compound 292, (2-Chloro-benzyl)-(6,7-diethoxy-2,4-dihydro-indeno[1,2-c]pyrazol-3-yl)-amine]?
**A.** IC50 [1]: 1 nM; inhibition at 10 µM [2]: 86.5%; IC50 [2]: 18.2 nM

**Q.** What does the source list for Fc1ccc2c(c1)-c1n[nH]c(Nc3ccccc3)c1C2 [Compound 299, (7-Fluoro-2,4-dihydro-indeno[1,2-c]pyrazol-3-yl)-phenyl-amine]?
**A.** IC50 [1]: 198 nM; inhibition at 10 µM [2]: 80%; IC50 [2]: 19.3 nM

**Q.** Which results are given for COc1ccc(Nc2[nH]nc3c2Cc2ccc(C)cc2-3)cc1Cl [Compound 309, (3-Chloro-4-methoxy-phenyl)-(7-methyl-2,4-dihydro-indeno[1,2-c]pyrazol-3-yl)-amine]?
**A.** IC50 [1]: 822 nM; inhibition at 10 µM [2]: 92.5%; IC50 [2]: 30.2 nM

**Q.** Which IC50 [1] does the source give for Cc1ccc2c(c1)-c1n[nH]c(Nc3cccc(C(C)O)c3)c1C2 (stereo not drawn) [Compound 310, 1-[3-(7-Methyl-2,4-dihydro-indeno[1,2-c]pyrazol-3-ylamino)-phenyl]-ethanol] here?
**A.** 1470 nM

**Q.** And the inhibition at 10 µM [2]?
**A.** 95.5%

**Q.** What about the IC50 [2] of the same molecule?
**A.** 20.2 nM

**Q.** Fc1cccc(Nc2[nH]nc3c2Cc2ccc(F)cc2-3)c1 [Compound 334, (7-Fluoro-2,4-dihydro-indeno[1,2-c]pyrazol-3-yl)-(3-fluoro-phenyl)-amine] was tested. Which IC50 [1] did it give?
**A.** 3300 nM

**Q.** And the inhibition at 10 µM [2]?
**A.** 99.5%

**Q.** And the IC50 [2]?
**A.** 8.69 nM

**Q.** What does the source list for Fc1cccc(Nc2[nH]nc3c2Cc2ccccc2-3)c1 [Compound 337, (2,4-Dihydro-indeno[1,2-c]pyrazol-3-yl)-(3-fluoro-phenyl)-amine]?
**A.** IC50 [1]: 2740 nM; inhibition at 10 µM [2]: 100%; IC50 [2]: 8.8 nM
